{"source": "the supplement of paper PMC10627819", "assay_in_all_cases": "Bliss interaction score (quartile over a dose matrix) (fitness difference); higher = more antagonism (negative = synergy)", "key": {"S. pneumoniae D39V": {"test_system": "S. pneumoniae D39V", "procedure,_shortened": "(§1)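 OD595 was read at entry into stationary phase and expressed relative to the robust mean of the no-drug wells on the same plate, capped at 1. The resulting ratio is the fitness value. The Bliss score, observed fitness minus product-based expected fitness with single-drug fitness inferred from combinations, is summarised by quartiles over technical, biological and donor/recipient replicates.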"}, "S. aureus Newman": {"test_system": "S. aureus Newman", "procedure,_shortened": "as §1"}, "S. aureus DSM 20231": {"test_system": "S. aureus DSM 20231", "procedure,_shortened": "as §1"}, "B. subtilis 168": {"test_system": "B. subtilis 168", "procedure,_shortened": "as §1"}}}
{"compound": "CN(C)[C@@H]1C(O)=C(C(N)=O)C(=O)[C@@]2(O)C(O)=C3C(=O)c4c(O)ccc(Cl)c4[C@@](C)(O)[C@H]3C[C@@H]12", "note": "[Clortetracycline] + O=C1CN(/N=C/c2ccc([N+](=O)[O-])o2)C(=O)N1 [Nitrofurantoin]", "values": [{"measurement": "Bliss interaction score", "setting": "S. pneumoniae D39V", "result": -0.0355}, {"measurement": "Bliss interaction score", "setting": "S. aureus Newman", "result": -0.0647}, {"measurement": "Bliss interaction score", "setting": "S. aureus DSM 20231", "result": 0.016}, {"measurement": "Bliss interaction score", "setting": "B. subtilis 168", "result": -0.158}]}
{"compound": "CC1(C)S[C@@H]2[C@H](NC(=O)Cc3ccccc3)C(=O)N2[C@H]1C(=O)O", "note": "[PenicillinG] + CO[C@H]1/C=C/O[C@@]2(C)Oc3c(C)c(O)c4c(O)c(c(/C=N/N5CCN(C)CC5)c(O)c4c3C2=O)NC(=O)/C(C)=C\\C=C\\[C@H](C)[C@H](O)[C@@H](C)[C@@H](O)[C@@H](C)[C@H](OC(C)=O)[C@@H]1C [Rifampicin]", "values": [{"measurement": "Bliss interaction score", "setting": "S. pneumoniae D39V", "result": -0.112}, {"measurement": "Bliss interaction score", "setting": "S. aureus Newman", "result": 0.0252}, {"measurement": "Bliss interaction score", "setting": "S. aureus DSM 20231", "result": 0.036}, {"measurement": "Bliss interaction score", "setting": "B. subtilis 168", "result": 0.0761}]}
{"compound": "CC(=O)Oc1ccccc1C(=O)O", "note": "[Acetylsalicylicacid] + CC1(C)S[C@@H]2[C@H](NC(=O)[C@H](N)c3ccc(O)cc3)C(=O)N2[C@H]1C(=O)O [Amoxicillin]", "values": [{"measurement": "Bliss interaction score", "setting": "S. pneumoniae D39V", "result": 0.0431}, {"measurement": "Bliss interaction score", "setting": "S. aureus Newman", "result": -0.0753}, {"measurement": "Bliss interaction score", "setting": "S. aureus DSM 20231", "result": 0.078}, {"measurement": "Bliss interaction score", "setting": "B. subtilis 168", "result": 0.192}]}
{"compound": "CN(C)[C@@H]1C(O)=C(C(N)=O)C(=O)[C@@]2(O)C(O)=C3C(=O)c4c(O)ccc(Cl)c4[C@@](C)(O)[C@H]3C[C@@H]12", "note": "[Clortetracycline] + CC(=O)O[C@H]1C[C@@]2(C)[C@@H](C[C@@H](O)[C@H]3[C@@]4(C)CC[C@@H](O)[C@@H](C)[C@@H]4CC[C@@]32C)/C1=C(\\CCC=C(C)C)C(=O)O [Fusidic acid]", "values": [{"measurement": "Bliss interaction score", "setting": "S. pneumoniae D39V", "result": -0.0508}, {"measurement": "Bliss interaction score", "setting": "S. aureus Newman", "result": 0.0488}, {"measurement": "Bliss interaction score", "setting": "S. aureus DSM 20231", "result": 0.026}, {"measurement": "Bliss interaction score", "setting": "B. subtilis 168", "result": -0.11}]}
{"compound": "N#CC(C#N)=NNc1cccc(Cl)c1", "note": "[CCCP] + CC(=O)NC[C@H]1CN(c2ccc(N3CCOCC3)c(F)c2)C(=O)O1 [Linezolid]", "values": [{"measurement": "Bliss interaction score", "setting": "S. pneumoniae D39V", "result": 0.0853}, {"measurement": "Bliss interaction score", "setting": "S. aureus Newman", "result": 0.0931}, {"measurement": "Bliss interaction score", "setting": "S. aureus DSM 20231", "result": -0.0274}, {"measurement": "Bliss interaction score", "setting": "B. subtilis 168", "result": 0.0322}]}
{"compound": "O=C(O)c1cn(C2CC2)c2cc(N3CCNCC3)c(F)cc2c1=O", "note": "[Ciprofloxacin] + N[C@@H]1CONC1=O [CycloserineD]", "values": [{"measurement": "Bliss interaction score", "setting": "S. pneumoniae D39V", "result": 0.0695}, {"measurement": "Bliss interaction score", "setting": "S. aureus Newman", "result": -0.105}, {"measurement": "Bliss interaction score", "setting": "S. aureus DSM 20231", "result": -0.0461}, {"measurement": "Bliss interaction score", "setting": "B. subtilis 168", "result": -0.0971}]}
{"compound": "N#CC(C#N)=NNc1cccc(Cl)c1", "note": "[CCCP] + CN(C)C(=O)C(CCN1CCC(O)(c2ccc(Cl)cc2)CC1)(c1ccccc1)c1ccccc1 [Loperamide]", "values": [{"measurement": "Bliss interaction score", "setting": "S. pneumoniae D39V", "result": -0.227}, {"measurement": "Bliss interaction score", "setting": "S. aureus Newman", "result": 0.0942}, {"measurement": "Bliss interaction score", "setting": "S. aureus DSM 20231", "result": -0.0407}, {"measurement": "Bliss interaction score", "setting": "B. subtilis 168", "result": 0.0251}]}
{"compound": "CC(=O)Oc1ccccc1C(=O)O", "note": "[Acetylsalicylicacid] + CO/N=C(\\C(=O)N[C@@H]1C(=O)N2C(C(=O)[O-])=C(C[N+]3(C)CCCC3)CS[C@H]12)c1csc(N)n1 [Cefepime]", "values": [{"measurement": "Bliss interaction score", "setting": "S. pneumoniae D39V", "result": 0.118}, {"measurement": "Bliss interaction score", "setting": "S. aureus Newman", "result": 0.0506}, {"measurement": "Bliss interaction score", "setting": "S. aureus DSM 20231", "result": 0.097}, {"measurement": "Bliss interaction score", "setting": "B. subtilis 168", "result": 0.167}]}
{"compound": "N#CC(C#N)=NNc1cccc(Cl)c1", "note": "[CCCP] + CC[C@H]1OC(=O)[C@H](C)[C@@H](O[C@H]2C[C@@](C)(OC)[C@@H](O)[C@H](C)O2)[C@H](C)[C@@H](O[C@@H]2O[C@H](C)C[C@H](N(C)C)[C@H]2O)[C@](C)(OC)C[C@@H](C)C(=O)[C@H](C)[C@@H](O)[C@]1(C)O [Clarithromycin]", "values": [{"measurement": "Bliss interaction score", "setting": "S. pneumoniae D39V", "result": -0.0531}, {"measurement": "Bliss interaction score", "setting": "S. aureus Newman", "result": 0.0706}, {"measurement": "Bliss interaction score", "setting": "S. aureus DSM 20231", "result": -0.0461}, {"measurement": "Bliss interaction score", "setting": "B. subtilis 168", "result": 0.0363}]}
{"compound": "COc1cccc2c1C(=O)c1c(O)c3c(c(O)c1C2=O)C[C@@](O)(C(=O)CO)C[C@@H]3O[C@H]1C[C@H](N)[C@H](O)[C@H](C)O1", "note": "[Doxorubicin] + CC1(C)S[C@@H]2[C@H](NC(=O)Cc3ccccc3)C(=O)N2[C@H]1C(=O)O [PenicillinG]", "values": [{"measurement": "Bliss interaction score", "setting": "S. pneumoniae D39V", "result": 0.0966}, {"measurement": "Bliss interaction score", "setting": "S. aureus Newman", "result": -0.0818}, {"measurement": "Bliss interaction score", "setting": "S. aureus DSM 20231", "result": 0.0914}, {"measurement": "Bliss interaction score", "setting": "B. subtilis 168", "result": 0.0777}]}
{"compound": "CN(C)[C@@H]1C(O)=C(C(N)=O)C(=O)[C@@]2(O)C(O)=C3C(=O)c4c(O)ccc(Cl)c4[C@@](C)(O)[C@H]3C[C@@H]12", "note": "[Clortetracycline] + Clc1ccc(COC(Cn2ccnc2)c2ccc(Cl)cc2Cl)c(Cl)c1 [Miconazole]", "values": [{"measurement": "Bliss interaction score", "setting": "S. pneumoniae D39V", "result": 0.0793}, {"measurement": "Bliss interaction score", "setting": "S. aureus Newman", "result": 0.0716}, {"measurement": "Bliss interaction score", "setting": "S. aureus DSM 20231", "result": 0.0511}, {"measurement": "Bliss interaction score", "setting": "B. subtilis 168", "result": 0.0788}]}
{"compound": "CC1(C)S[C@@H]2[C@H](NC(=O)Cc3ccccc3)C(=O)N2[C@H]1C(=O)O", "note": "[PenicillinG] + CN(N=O)C(=O)N[C@@H](C=O)[C@@H](O)[C@H](O)[C@H](O)CO [Streptozotocin]", "values": [{"measurement": "Bliss interaction score", "setting": "S. pneumoniae D39V", "result": 0.0394}, {"measurement": "Bliss interaction score", "setting": "S. aureus Newman", "result": -0.0606}, {"measurement": "Bliss interaction score", "setting": "S. aureus DSM 20231", "result": -0.0545}, {"measurement": "Bliss interaction score", "setting": "B. subtilis 168", "result": 0.0513}]}
{"compound": "O=C(O)c1cn(C2CC2)c2cc(N3CCNCC3)c(F)cc2c1=O", "note": "[Ciprofloxacin] + CN[C@H](CC(C)C)C(=O)N[C@H]1C(=O)N[C@@H](CC(N)=O)C(=O)N[C@H]2C(=O)N[C@H]3C(=O)N[C@H](C(=O)N[C@H](C(=O)O)c4cc(O)cc(O)c4-c4cc3ccc4O)[C@H](O[C@H]3C[C@](C)(N)[C@@H](O)[C@H](C)O3)c3ccc(c(Cl)c3)Oc3cc2cc(c3O[C@@H]2O[C@H](CO)[C@@H](O)[C@H](O)[C@H]2O[C@H]2C[C@](C)(NCc3ccc(-c4ccc(Cl)cc4)cc3)[C@@H](O)[C@H](C)O2)Oc2ccc(cc2Cl)[C@H]1O [Oritavancin]", "values": [{"measurement": "Bliss interaction score", "setting": "S. pneumoniae D39V", "result": 0.0622}, {"measurement": "Bliss interaction score", "setting": "S. aureus Newman", "result": -0.0474}, {"measurement": "Bliss interaction score", "setting": "S. aureus DSM 20231", "result": -0.0468}, {"measurement": "Bliss interaction score", "setting": "B. subtilis 168", "result": -0.0274}]}
{"compound": "N#CC(C#N)=NNc1cccc(Cl)c1", "note": "[CCCP] + CN(C)[C@@H]1C(O)=C(C(N)=O)C(=O)[C@@]2(O)C(O)=C3C(=O)c4c(O)ccc(Cl)c4[C@@](C)(O)[C@H]3C[C@@H]12 [Clortetracycline]", "values": [{"measurement": "Bliss interaction score", "setting": "S. pneumoniae D39V", "result": -0.0306}, {"measurement": "Bliss interaction score", "setting": "S. aureus Newman", "result": 0.0865}, {"measurement": "Bliss interaction score", "setting": "S. aureus DSM 20231", "result": 0.0445}, {"measurement": "Bliss interaction score", "setting": "B. subtilis 168", "result": -0.0685}]}
{"compound": "C[C@H]1c2cccc(O)c2C(=O)C2=C(O)[C@]3(O)C(=O)C(C(N)=O)=C(O)[C@@H](N(C)C)[C@@H]3[C@@H](O)[C@@H]21", "note": "[Doxycycline] + Oc1cc(Cl)ccc1Oc1ccc(Cl)cc1Cl [Triclosan]", "values": [{"measurement": "Bliss interaction score", "setting": "S. pneumoniae D39V", "result": 0.0668}, {"measurement": "Bliss interaction score", "setting": "S. aureus Newman", "result": 0.0244}, {"measurement": "Bliss interaction score", "setting": "S. aureus DSM 20231", "result": -0.0352}, {"measurement": "Bliss interaction score", "setting": "B. subtilis 168", "result": -0.0554}]}
{"compound": "N#CC(C#N)=NNc1cccc(Cl)c1", "note": "[CCCP] + Oc1cc(Cl)ccc1Oc1ccc(Cl)cc1Cl [Triclosan]", "values": [{"measurement": "Bliss interaction score", "setting": "S. pneumoniae D39V", "result": 0.0866}, {"measurement": "Bliss interaction score", "setting": "S. aureus Newman", "result": -0.021}, {"measurement": "Bliss interaction score", "setting": "S. aureus DSM 20231", "result": 0.0338}, {"measurement": "Bliss interaction score", "setting": "B. subtilis 168", "result": 0.0443}]}
{"compound": "CC1(C)S[C@@H]2[C@H](NC(=O)Cc3ccccc3)C(=O)N2[C@H]1C(=O)O", "note": "[PenicillinG] + Oc1cc(Cl)ccc1Oc1ccc(Cl)cc1Cl [Triclosan]", "values": [{"measurement": "Bliss interaction score", "setting": "S. pneumoniae D39V", "result": 0.0767}, {"measurement": "Bliss interaction score", "setting": "S. aureus Newman", "result": 0.0326}, {"measurement": "Bliss interaction score", "setting": "S. aureus DSM 20231", "result": 0.0254}, {"measurement": "Bliss interaction score", "setting": "B. subtilis 168", "result": 0.0307}]}
